Peptide text beside a SMILES is read from it.
Columns and labels:
[1] = tested on: activated lymphocytes (CD3+CD25+); experiment: activated lymphocytes (CD25+CD3+ by flow cytometry) in 5-FU immune-suppressed rats, Example 1; type: in vivo
Method: (§1) In the following examples, which are not intended to be limiting, a continuous infusion of TA1 (N-acetyl-[…]OH) (SEQ ID NO:1) was evaluated in a cancer therapy model with the use of surgically implanted osmotic minipumps, which deliver fluids at a constant flow rate for 5 days. Rats were given 5-fluorouracil (5-FU) to cause immune suppression, and then treated with injected or infused TA1 8 days later (the nadir of white cell count after 5-FU). Treatment groups, 8 rats each, were: control (minipumps with saline); low dose TA1 (0.2 mg/Kg sc injection; empty minipumps); high dose TA1 (3.5 mg/Kg sc injection; empty minipumps); and high dose infused TA1 (3.5 mg/Kg infused by minipumps). Immune parameters were determined at baseline and 8 days after 5-FU treatment (day 1 of TA1 treatment), and also at 5, 12, 20, and 27 days after TA1 treatment.
(§2) 10 week old rats, weighing 250-300 g, received 100 mg/kg 5-fluorouracil (5-FU) for immune suppression.
(§3) 8 days after 5-FU treatment, rats were randomly assigned to one of the following groups (n=8): • Control (saline in minipump) • Low dose TA1, injected s.c. at 0.2 mg/Kg (with empty minipumps) • High dose TA1, injected s.c. at 3.5 mg/Kg (with empty minipumps) • Continuous infusion TA1, provided by minipump at 3.5 mg/Kg/5 days
(§4) Immune parameters were determined at baseline and 8 days after 5-FU treatment (day 1 of TA1 treatment), and also at 5, 12, 20, and 27 days after TA1 treatment.
(§5) The evaluations included NK activity (LDH released from YAC-1 cells after 4 h exposure to PBMC), total leukocyte number (judged by physical cytofluorimetric parameters, after verifying the specificity by monoclonal antibody), total lymphocyte number (CD3+ by flow cytometry), and activated lymphocytes (CD25+CD3+ by flow cytometry).

NK activity = NK activity (LDH released from YAC-1 cells after 4 h exposure to PBMC) in 5-FU immune-suppressed rats, Example 1; type: in vivo; details: for NK activity: 5 days after TA1 treatment
Method: as §1, §2, §3, §4, §5

[2] = tested on: T helper lymphocytes (CD3+CD4+); experiment: T helper lymphocytes (CD4+ by flow cytometry) in 5-FU immune-suppressed rats, Example 2; type: in vivo
Method: (§6) 10 week old rats, weighing 250-300 g, received […] 5-FU for immune suppression.
(§7) 8 days after 5-FU treatment, rats were randomly assigned to one of the following groups (n=15): • Control (saline in minipump) • High dose TA1, injected s.c. at 3.5 mg/Kg (with empty minipumps) • Continuous infusion TA1, provided by minipump at 3.5 mg/Kg/5 days
(§8) Immune parameters were determined at baseline and 8 days after 5-FU treatment (day 1 of TA1 treatment), and also at 5 and 14 days after TA1 treatment.
(§9) The evaluations included total leukocyte number (judged by physical cytofluorimetric parameters, after verifying the specificity by monoclonal antibody), granulocytes (flow cytometry using FITC anti rat granulocyte HIS-48), total lymphocyte number (CD3+ by flow cytometry), T helper lymphocytes (CD4+ by flow cytometry), activated lymphocytes (CD25+CD3+ by flow cytometry), and cytokine expression in plasma (IL-2 and IFN-γ by ELISA).

granulocytes = granulocytes (flow cytometry, HIS-48) in 5-FU immune-suppressed rats, Example 2; type: in vivo
Method: as §6, §7, §8, §9

total lymphocytes (CD3+) = experiment: total lymphocyte number (CD3+ by flow cytometry) in 5-FU immune-suppressed rats, Example 2; type: in vivo
Method: as §6, §7, §8, §9

total leukocyte number = experiment: total white blood cell count in 5-FU immune-suppressed rats, Example 1; type: in vivo
Method: as §1, §2, §3, §4, §5

IFN-γ = experiment: cytokine expression in plasma by ELISA: IFN-γ, Example 2; type: in vivo, rats
Method: as §6, §7, §8, §9

[3] = tested on: activated lymphocytes (CD25+CD3+); experiment: activated lymphocytes (CD25+CD3+ by flow cytometry) in 5-FU immune-suppressed rats, Example 2; type: in vivo
Method: as §6, §7, §8, §9

[4] = observation of adverse events in treated rats; type: in vivo
Method: as §7

IL-2 = experiment: cytokine expression in plasma by ELISA: IL-2, Example 2; type: in vivo, rats; details: for plasma level of IL-2: 14 days after TA1
Method: as §6, §7, §8, §9

[5] = continuous infusion by minipump 3.5 mg/Kg/5 days
[6] = high dose injected s.c. 3.5 mg/Kg
[7] = low dose injected s.c. 0.2 mg/Kg
[8] = continuous infusion 3.5 mg/Kg/5 days
[9] = one animal, high dose injection followed by infusion

## O=c1[nH]cc(F)c(=O)[nH]1 [5-FU, 5-fluorouracil]
[1]; 8 days after 100 mg/kg 5-FU, baseline 65±21
  activated lymphocytes (CD3+CD25+) after 5-FU: 37±10 cells/mm^3
NK activity; 8 days after 100 mg/kg 5-FU, baseline 42±5%
  NK activity after 5-FU: 9±2%
[2]; 8 days after 100 μg/kg 5-FU, baseline 5,411±1,084
  T helper lymphocytes (CD3+CD4+) after 5-FU: 1,710±449 cells/mm^3
granulocytes; 8 days after 100 μg/kg 5-FU, baseline 4,485±1,116
  number of granulocytes after 5-FU: 1,249±432 cells/mm^3
Total lymphocytes (CD3+); 8 days after 100 μg/kg 5-FU, baseline 10,904±1,973
  total lymphocytes (CD3+) after 5-FU: 1,740±560 cells/mm^3
Total leukocyte number; 8 days after 100 mg/kg 5-FU, baseline 14,590±2,071
  total white blood cell count after 5-FU: 2,597±582 cells/mm^3

## CC[C@H](C)[C@H](NC(=O)[C@H](CCC(=O)O)NC(=O)[C@H](CO)NC(=O)[C@H](CO)NC(=O)[C@@H](NC(=O)[C@H](CC(=O)O)NC(=O)[C@@H](NC(=O)[C@H](C)NC(=O)[C@H](C)NC(=O)[C@H](CC(=O)O)NC(=O)[C@H](CO)NC(C)=O)C(C)C)[C@@H](C)O)C(=O)N[C@H](C(=O)N[C@H](C(=O)N[C@@H](CCCCN)C(=O)N[C@@H](CC(=O)O)C(=O)N[C@@H](CC(C)C)C(=O)N[C@@H](CCCCN)C(=O)N[C@@H](CCC(=O)O)C(=O)N[C@@H](CCCCN)C(=O)N[C@@H](CCCCN)C(=O)N[C@@H](CCC(=O)O)C(=O)N[C@H](C(=O)N[C@H](C(=O)N[C@@H](CCC(=O)O)C(=O)N[C@@H](CCC(=O)O)C(=O)N[C@@H](C)C(=O)N[C@@H](CCC(=O)O)C(=O)N[C@@H](CC(N)=O)C(=O)O)C(C)C)C(C)C)[C@@H](C)O)[C@@H](C)O [TA1] (Ac-SDAAVDTSSEITTKDLKEKKEVVEEAEN-OH)
[1]; continuous infusion 3.5 mg/Kg/5 days, 12 days after TA1 treatment
  activated lymphocytes (CD3+CD25+): 422±105 cells/mm^3
[1]; continuous infusion 3.5 mg/Kg/5 days, 20 days after TA1 treatment
  activated lymphocytes (CD3+CD25+): 446±73 cells/mm^3
[1]; high dose injected 3.5 mg/Kg, 12 days after TA1 treatment
  activated lymphocytes (CD3+CD25+): 297±136 cells/mm^3
[1]; high dose injected 3.5 mg/Kg, 20 days after TA1 treatment
  activated lymphocytes (CD3+CD25+): 321±75 cells/mm^3
IFN-γ; TA1 by injection 3.5 mg/Kg s.c., 14 days after treatment
  plasma level of IFN-γ: 10 ± 1 pg/mL
IFN-γ; continuous infusion 3.5 mg/Kg/5 days, 14 days after treatment
  plasma level of IFN-γ: 14 ± 5 pg/mL
IFN-γ; one animal, both injection and continuous infusion, after 14 days
  plasma level of IFN-γ: 45 pg/mL
IFN-γ; s.c. injected TA1 3.5 mg/Kg, 5 days after treatment
  plasma level of IFN-γ relative to other groups: higher plasma levels of IFN-γ
NK activity; [5]
  recovery of NK activity: complete recovery of NK activity to baseline levels
NK activity; continuous infusion by minipump 3.5 mg/Kg/5 days, baseline 42±5%
  NK activity: 32±4%
NK activity; [6]
  time to significant recovery of NK activity: 5 days
  NK activity: 16±2%
NK activity; [7]
  time to significant recovery of NK activity: 12 days
  NK activity: 12±3%
[2]; TA1 by either delivery method (injection or continuous infusion, 3.5 mg/Kg)
  recovery of T helper cell levels: sufficient to return the levels of T helper cells to baseline
[3]; [8]
  activated lymphocytes: 428±89 cells/mm^3
  percentage of lymphocytes which were activated: 4 % of lymphocytes
[3]; [9]
  activated lymphocytes: 976 cells/mm^3
  percentage of lymphocytes which were activated: 10 % of lymphocytes
granulocytes; TA1 by s.c. injection 3.5 mg/Kg, 5 days
  number of granulocytes: 9,924±3,218 cells/mm^3
granulocytes; continuous infusion 3.5 mg/Kg/5 days, 5 days
  number of granulocytes: 14,652±2,463 cells/mm^3
granulocytes; continuous infusion 3.5 mg/Kg/5 days, after 14 days
  number of granulocytes relative to other groups: still the highest
granulocytes; one animal, both injection (3.5 mg/Kg) and continuous infusion (another 3.5 mg/Kg), after 5 days
  number of granulocytes: 19,376 cells/mm^3
[4]; doses of TA1 15 times higher than usual (one animal 30 times higher than usual)
  adverse events: No adverse events were observed
[4]; one animal, both injection (3.5 mg/Kg) and continuous infusion (another 3.5 mg/Kg)
  adverse events / condition of the animal: healthy and vigorous, with no obvious adverse events
Total lymphocytes (CD3+); [8]
  time to recovery of total lymphocytes (CD3+) to baseline levels: 5 days
Total lymphocytes (CD3+); continuous infusion 3.5 mg/Kg/5 days, mean of other animals
  levels of lymphocytes: 9,644±961 cells/mm^3
Total lymphocytes (CD3+); injected TA1 3.5 mg/Kg s.c.
  time to recovery of total lymphocytes (CD3+) to baseline levels: 14 days
Total lymphocytes (CD3+); one animal, both injection and continuous infusion (3.5 mg/Kg each)
  levels of lymphocytes: 9,765 cells/mm^3
IL-2; [8]
  plasma level of IL-2: 42 ± 7 pg/mL
IL-2; injected TA1 3.5 mg/Kg s.c.
  plasma level of IL-2: 21 ± 16 pg/mL
IL-2; one animal, both injection and continuous infusion
  plasma level of IL-2 relative to other animals: even greater levels of both of the Th1 cytokines measured
Total leukocyte number; [5]
  recovery of total white blood cell count: statistically significant and complete recovery to baseline levels after only 5 days
Total leukocyte number; low or high dose TA1 by s.c. injection (0.2 or 3.5 mg/Kg)
  recovery of total white blood cell count: trended towards a sooner increase in recovery compared to untreated animals

Reference: US20100221274A1, “METHOD OF ADMINISTERING A THYMOSIN ALPHA 1 PEPTIDE” (SCICLONE PHARMACEUTICALS, INC., priority 2001, published 2010)
